Where “and” joins values, the source holds several entries; their conditions need not be identical. Equal values may be shown once.
target: T1, Alpha-2C adrenergic receptor (Rattus norvegicus, UniProt P22086)
T1 sequence (P22086 whole entry): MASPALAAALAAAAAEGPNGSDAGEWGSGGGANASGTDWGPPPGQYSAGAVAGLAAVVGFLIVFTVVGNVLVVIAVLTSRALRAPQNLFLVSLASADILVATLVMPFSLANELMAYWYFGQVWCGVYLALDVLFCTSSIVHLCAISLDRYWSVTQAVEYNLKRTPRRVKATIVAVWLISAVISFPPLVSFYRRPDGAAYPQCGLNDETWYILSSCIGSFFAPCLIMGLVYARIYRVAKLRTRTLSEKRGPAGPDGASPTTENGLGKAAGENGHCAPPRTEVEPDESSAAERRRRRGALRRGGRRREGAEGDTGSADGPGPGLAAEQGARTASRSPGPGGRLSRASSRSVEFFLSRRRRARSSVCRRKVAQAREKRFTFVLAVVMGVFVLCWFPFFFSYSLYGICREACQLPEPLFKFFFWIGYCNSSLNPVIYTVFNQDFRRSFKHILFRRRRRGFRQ

With `CC(C)(C)[C@]1(O)CCN2C[C@H]3c4ccccc4CCc4cccc(c43)[C@@H]2C1` as the compound, how does the Ki read?
The Ki was 220 nM and 107 nM.

With `COc1ccc(OC)c(C(O)C(C)N)c1` (stereo not given) as the compound, how does the Ki read?
Its Ki is > 10000 nM.

`NCCc1ccc(O)c(O)c1` was tested. Which Ki did it give?
Its Ki is > 10000 nM and 9990 nM.

Which Ki does the source give for `O=C(c1ccc(F)cc1)C1CCN(CCn2c(=O)[nH]c3ccccc3c2=O)CC1` [3-(2-{4-[(4-fluorophenyl)carbonyl]piperidin-1-yl}ethyl)-1,2,3,4-tetrahydroquinazoline-2,4-dione] here?
Its Ki is 2210 nM and 441 nM.

How did the Ki turn out when `CN1Cc2c(N)cccc2[C@H](c2ccccc2)C1` [(+/-)-2-Methyl-4-phenyl-1,2,3,4-tetrahydro-isoquinolin-8-ylamine] was run?
Its Ki is 8500 nM and 4990 nM.

With `C=CCN1CCc2nc(N)sc2CC1` [B-HT 920] as the compound, how does the Ki read?
Its Ki is 152 nM and 62.2 nM.

Which Ki does the source give for `NC(N)=NN=Cc1c(Cl)cccc1Cl` [Guanabenz] here?
The Ki was 5.8 nM and 36.7 nM.

For `CCN1CCCC1CNC(=O)c1cc(S(N)(=O)=O)ccc1OC` (stereo not given) [N-[(1-ethylpyrrolidin-2-yl)methyl]-2-methoxy-5-sulfamoylbenzamide], which Ki is on record?
Its Ki is 6120 nM and 682 nM.

Which Ki does the source give for `NCCc1c[nH]c2ccc(O)cc12` [[3H]-5-HT] here?
Its Ki is > 10000 nM.

For `C[C@H](N)Cc1ccccc1` [beta-aminopropylbenzene], which Ki is on record?
The Ki was 992 nM and 2410 nM.

From BindingDB's records for PubMed 2885406 (University of California, 1987)
